These results are taken from patent US11273168B2, “Methods of treating anxiety by administering a substituted quinolone” (OTSUKA PHARMACEUTICAL CO., LTD., priority 2010, dated 2022).

Assay type in all cases: biochemical
One experiment addresses T1, Serotonin (5-HT) uptake (Rattus norvegicus, UniProt P31652).
T1 construct: The suspension was used as a crude synaptosome fraction; from tissue; host or cells: rat (male Wistar) frontal cortex, crude synaptosome fraction
As to the kind of experiment: Serotonin (5-HT) uptake inhibitory activity using rat brain synaptosome (frontal cortex). To be noted: tritium-labeled 5-HT 8 nM, 37° C. 10 minutes, read-out: 50% Inhibitory concentration. As for the experimental part: Measurement of Serotonin (5-HT) Uptake Inhibitory Activity of Test Compound Using Rat Brain Synaptosome
Male Wistar rats were decapitated, and their brains were removed and dissected to remove the frontal cortex. The separated frontal cortex was placed in a 20-fold weight of a 0.32 molarity (M) sucrose solution and homogenized with a potter homogenizer. The homogenate was centrifuged at 1000 g at 4° C. for 10 minutes, and the supernatant was further centrifuged at 20000 g at 4° C. for 20 minutes. […] The suspension was used as a crude synaptosome fraction.
(§1) Uptake reaction was performed using each well of a 96-well round-bottom plate and a 200 μl volume in total of a solution containing pargyline (final concentration: 10 μM) and ascorbic acid (final concentration: 0.2 mg/ml).
(§2) Specifically, a solvent, unlabeled 5-HT, and serially diluted test compounds were separately added to the wells, and the synaptosome fraction was added in an amount 1/10 of the final volume to each well and preincubated at 37° C. for 10 minutes. Then, a tritium-labeled 5-HT solution (final concentration: 8 nM) was added thereto to initiate uptake reaction at 37° C. 10 minutes later, the uptake reaction was terminated by suction filtration through a 96-well glass fiber filter plate. Furthermore, the filter was washed with a cold saline and then sufficiently dried. MicroScint-O (PerkinElmer Co., Ltd.) was added thereto, and the residual radioactivity on the filter was measured.
An uptake value obtained by the addition of only the solvent was defined as 100%, and an uptake value (nonspecific uptake value) obtained by the addition of the unlabeled 5-HT (final concentration: 10 μM) was defined as 0%. A 50%, inhibitory concentration was calculated from the test compound concentrations and inhibitory activities thereat.

In experiment [1] the target is Norepinephrine (NE) uptake (Rattus norvegicus, UniProt Q9WTR4). As to the kind of experiment: Norepinephrine (NE) uptake inhibitory activity using rat brain synaptosome (hippocampus). To be noted: tritium-labeled NE 12 nM, 37° C. ten minutes, read-out: 50% inhibitory concentration. As to the method:
Measurement of Norepinephrine (NE) Uptake Inhibitory Activity of Test Compound Using Rat Brain Synaptosome
Male Wistar rats were decapitated, and their brains were removed and dissected to remove the hippocampus. The separated hippocampus was placed in a 20-fold weight of a 0.32 molarity (M) sucrose solution and homogenized with a potter homogenizer. The homogenate was centrifuged at 1000 g at 4° C. for 10 minutes, and the supernatant was further centrifuged at 20000 g at 4° C. for 20 minutes. The pellet was suspended in an incubation buffer (20 mM HEPES buffer (pH 7.4) containing 10 mM glucose, 145 mM sodium chloride, 4.5 mM potassium chloride, 1.2 mM magnesium chloride, and 1.5 mM calcium chloride). The suspension was used as a crude synaptosome fraction.
as §1
as §2, with “unlabeled NE,” for “unlabeled 5-HT,”, “tritium-labeled NE” for “tritium-labeled 5-HT”, “concentration: 12” for “concentration: 8”, “C. Ten” for “C. 10”
An uptake value obtained by the addition of only the solvent was defined as 100%, and an uptake value (nonspecific uptake value) obtained by the addition of the unlabeled NE (final concentration: 10 μM) was defined as 0%. A 50% inhibitory concentration was calculated from the test compound concentrations and inhibitory activities thereat.

Another experiment addresses T2, Dopamine (DA) uptake (Rattus norvegicus, UniProt P23977).
T2 construct: The suspension was used as a crude synaptosome fraction; from tissue; host or cells: rat (male Wistar) corpus striatum, crude synaptosome fraction
As to the kind of experiment: Dopamine (DA) uptake inhibitory activity using rat brain synaptosome (corpus striatum). The settings on record: tritium-labeled DA 2 nM, 37° C. ten minutes, read-out: 50% Inhibitory concentration. As to the method: Measurement of Dopamine (DA) Uptake Inhibitory Activity of Test Compound Using Rat Brain Synaptosome
Male Wistar rats were decapitated, and their brains were removed and dissected to remove the corpus striatum. The separated corpus striatum was placed in a 20-fold weight of a 0.32 molarity (M) sucrose solution and homogenized with a potter homogenizer. The homogenate was centrifuged at 1000 g at 4° C. for 10 minutes, and the supernatant was further centrifuged at 20000 g at 4° C. for 20 minutes. […] The suspension was used as a crude synaptosome fraction.
Uptake reaction was performed using each well of a 96-well round-bottom plate and a 200 μl volume in total of a solution containing pargyline (final concentration: 10 μM) and ascorbic acid (final concentration: 0.2 mg/mil).
as §2, with “unlabeled DA,” for “unlabeled 5-HT,”, “tritium-labeled DA” for “tritium-labeled 5-HT”, “concentration: 2” for “concentration: 8”, “C. Ten” for “C. 10”
An uptake value obtained by the addition of only the solvent was defined as 100%, and an uptake value (nonspecific uptake value) obtained by the addition of the unlabeled DA (final concentration: 10 μM) was defined as 0%. A 50% inhibitory concentration was calculated from the test compound concentrations and inhibitory activities thereat.

SMILES strings stand for the structures. Structures can show the parent of a compound that is named as a salt.

T2 sequence (P23977 whole entry): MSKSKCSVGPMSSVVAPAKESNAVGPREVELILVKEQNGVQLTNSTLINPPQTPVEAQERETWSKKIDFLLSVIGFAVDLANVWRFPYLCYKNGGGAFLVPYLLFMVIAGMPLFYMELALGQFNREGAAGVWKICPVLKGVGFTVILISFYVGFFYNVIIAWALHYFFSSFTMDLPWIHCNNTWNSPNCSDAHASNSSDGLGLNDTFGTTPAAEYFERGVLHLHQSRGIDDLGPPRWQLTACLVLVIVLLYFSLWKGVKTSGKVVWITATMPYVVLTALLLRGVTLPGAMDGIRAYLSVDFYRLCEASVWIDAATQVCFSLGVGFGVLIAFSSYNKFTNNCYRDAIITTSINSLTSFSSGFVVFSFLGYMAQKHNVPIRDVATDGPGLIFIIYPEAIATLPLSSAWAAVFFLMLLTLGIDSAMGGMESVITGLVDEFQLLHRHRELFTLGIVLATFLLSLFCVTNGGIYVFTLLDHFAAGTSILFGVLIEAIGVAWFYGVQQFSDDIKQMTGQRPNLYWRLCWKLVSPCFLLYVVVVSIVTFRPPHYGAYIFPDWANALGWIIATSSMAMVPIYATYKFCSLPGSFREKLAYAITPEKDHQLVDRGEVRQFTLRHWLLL
T1 sequence (P31652 whole entry): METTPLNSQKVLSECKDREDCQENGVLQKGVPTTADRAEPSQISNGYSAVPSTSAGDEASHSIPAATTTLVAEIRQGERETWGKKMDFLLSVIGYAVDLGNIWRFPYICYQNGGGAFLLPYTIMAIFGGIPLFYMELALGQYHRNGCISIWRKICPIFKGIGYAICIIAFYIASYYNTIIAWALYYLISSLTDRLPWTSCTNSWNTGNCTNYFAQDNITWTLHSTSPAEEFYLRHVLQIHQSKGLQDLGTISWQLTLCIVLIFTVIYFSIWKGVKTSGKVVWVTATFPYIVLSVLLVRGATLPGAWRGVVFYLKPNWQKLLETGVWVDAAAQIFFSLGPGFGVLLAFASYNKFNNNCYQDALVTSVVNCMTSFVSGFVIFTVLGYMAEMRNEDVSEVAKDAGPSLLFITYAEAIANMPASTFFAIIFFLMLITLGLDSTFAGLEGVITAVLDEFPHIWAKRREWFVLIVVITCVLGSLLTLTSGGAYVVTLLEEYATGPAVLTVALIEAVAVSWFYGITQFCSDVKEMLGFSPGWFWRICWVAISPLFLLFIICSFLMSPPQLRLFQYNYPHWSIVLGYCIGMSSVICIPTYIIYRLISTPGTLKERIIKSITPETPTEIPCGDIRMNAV

For the compound `CC1(C)CN(c2ccc(Cl)c(Cl)c2)[C@@H]2CCCCC[C@@H]2N1` (relative stereo) [Example 346], the values for the IC50 (at Serotonin (5-HT) uptake; in experiment [1]; at Dopamine (DA) uptake) were 10 nM, 8.8 nM and 7.8 nM, respectively.

`CC1(C)CN(c2cc(Cl)c3occc3c2)[C@H]2CCCC[C@@H]2N1` [Example 884]: the values for the IC50 (at Serotonin (5-HT) uptake; in experiment [1]; at Dopamine (DA) uptake) were 7.3 nM, 4.8 nM and 52.8 nM, respectively.

Consider `CC1(C)CN(c2cccc3[nH]ccc23)[C@@H]2CCCC[C@@H]2N1` [Example 85], for which the IC50 at Serotonin (5-HT) uptake came to 7.2 nM; in experiment [1], 4.9 nM; on Dopamine (DA) uptake it was 95.7 nM.

As to `CC1(C)CN(c2ccc(F)c(Cl)c2)[C@@H]2CCCC[C@@H]2N1` [Example 112, (4aS,8aR)-1-(3-chloro-4-fluorophenyl)-3,3-dimethyldecahydroquinoxaline hydrochloride], the IC50 was 7.1 nM at Serotonin (5-HT) uptake, 87.3 nM in experiment [1] and 264 nM on Dopamine (DA) uptake.

As to `OCCN1CCN(c2ccc(Cl)c(Cl)c2)[C@H]2CCCC[C@@H]21` (relative stereo) [Example 300], the IC50 is 89.1 nM at Serotonin (5-HT) uptake, 9.9 nM in experiment [1] and 81.3 nM at Dopamine (DA) uptake.

For `CC1(C)CN(c2ccc3sccc3c2)[C@H]2CCC[C@@H]2N1` (relative stereo) [Example 13], the IC50 is 5.1 nM on Serotonin (5-HT) uptake, 14.3 nM in experiment [1] and 85.4 nM at Dopamine (DA) uptake.

For `CC1(C)CN(c2ccc3[nH]c(C#N)cc3c2)[C@H]2CCCC[C@@H]2N1` [Example 582, (4aS,8aS)-1-(2-cyano-1H-indol-5-yl) 3,3-dimethyldecahydroquinoxaline], the IC50 at Serotonin (5-HT) uptake turned out to be 4.1 nM; in experiment [1], 6 nM; on Dopamine (DA) uptake, 68.8 nM.

Consider `CC1(C)CN(c2ccc(OC(F)F)c(Cl)c2)[C@@H]2CCCC[C@H]2N1` [Example 1026], for which the figures for the IC50 (at Serotonin (5-HT) uptake; in experiment [1]; at Dopamine (DA) uptake) were 2.4 nM, 4.2 nM and 12.3 nM, respectively.

For the compound `CC1(C)CN(c2csc3ccccc23)[C@@H]2CCCC[C@@H]2N1` [Example 717], the IC50 on Serotonin (5-HT) uptake was determined as 4.2 nM; in experiment [1], 4.8 nM; on Dopamine (DA) uptake it was 60.1 nM.

`CC1(C)CN(c2csc3ccccc23)[C@H]2CCCC[C@H]2N1` [Example 841]: the IC50 worked out at 28.1 nM at Serotonin (5-HT) uptake, 0.9 nM in experiment [1] and 5.1 nM on Dopamine (DA) uptake.

Take `CC1(C)CN(c2ccc(F)c3occc23)[C@@H]2CCCC[C@@H]2N1` [Example 77, (4aS,8aR)-1-(7-fluorobenzofuran-4-yl)-3,3-dimethyldecahydroquinoxaline]: the IC50 on Serotonin (5-HT) uptake is 0.8 nM; in experiment [1] it was 3.9 nM; on Dopamine (DA) uptake it was 41.2 nM.

Consider `Clc1ccc(N2CC3(CCC3)N[C@H]3CCCC[C@H]32)cc1` [Example 276], for which the IC50 at Serotonin (5-HT) uptake is 7.2 nM; in experiment [1], 4.5 nM; on Dopamine (DA) uptake it was 10.9 nM.

In the case of `Clc1ccc(N2CCN[C@H]3CCCC[C@@H]32)c2ccoc12` [Example 1083], the IC50 at Serotonin (5-HT) uptake came out at 5.1 nM; in experiment [1], 2.5 nM; on Dopamine (DA) uptake, 53.7 nM.

As to `CC1(C)CN(c2ccc(F)c3occc23)[C@H]2CCCC[C@@H]2N1` [Example 192], the IC50 was found to be 2.9 nM on Serotonin (5-HT) uptake, 3.6 nM in experiment [1] and 8.6 nM on Dopamine (DA) uptake.

In the case of `CC1(C)CN(c2cc(F)c(F)c3occc23)[C@@H]2CCCC[C@@H]2N1` [Example 580, (4aS,8aR)-1-(6,7-difluorobenzofuran-4-yl)-3,3-dimethyldecahydroquinoxaline hydrochloride], the values for the IC50 (on Serotonin (5-HT) uptake; in experiment [1]; at Dopamine (DA) uptake) were 2.5 nM, 5.4 nM and 202 nM, respectively.

Consider `CC1(C)CN(c2ccc3sccc3c2)[C@H]2CCCC[C@@H]2N1` [Example 186], for which the IC50 at Serotonin (5-HT) uptake worked out at 5.2 nM; in experiment [1], 3.8 nM; at Dopamine (DA) uptake, 29.8 nM.

With `Cc1noc(-c2ccc(N3C[C@@H](C)N[C@H]4CCCC[C@@H]43)cc2)n1` [Example 1333], the IC50 on Serotonin (5-HT) uptake was found to be 84.2 nM; in experiment [1] it was 39.6 nM; on Dopamine (DA) uptake it was 73 nM.
